The source of these data is ChEMBL document CHEMBL3739380, “Discovery of benzothiazoles as antimycobacterial agents: Synthesis, structure-activity relationships and binding studies with Mycobacterium tuberculosis decaprenylphosphoryl-β-D-ribose 2'-oxidase” (Bioorg Med Chem, 2015).

≈ marks a conversion by molar mass, not a printed value. Calls of active or inactive are those of the source. The calls are words filed in the database; no cut-off is given here.

As usually defined, the MIC is the lowest concentration found to suppress growth. Low readings indicate inhibition by little substance, high ones a need for much substance. One may read the clearance as the volume of plasma or blood freed of the substance per unit of time. Higher therefore signals efficient removal. For orientation: IC50 means the concentration that inhibits the measured activity by half. A word on the solubility: it is the dissolved amount per volume that the medium holds. Lower therefore signals a poorly soluble substance. The term bioavailability denotes the share of a dose that reaches the circulation, judged against a reference dose that is usually intravenous. The low end stands for little systemic uptake, the high end for much systemic uptake. By AUC is commonly meant concentration integrated over time. A high value points to high exposure. A word on the fraction unbound: it is free concentration divided by total concentration. The low end stands for extensive binding, the high end for weak binding.

Data set [1] has as its system Salmonella typhimurium. Kind of data set: Genotoxicity in Salmonella typhimurium TA100 at 160 ug/plate by Ames test in presence of S9 fraction. It counts as toxicity, organism-based. Particulars: salmonella enterica subsp. enterica serovar typhimurium. A general note: The Ames test uses bacterial strains that need an amino acid and regain growth without it when mutated back.

Data set [2] deals with Salmonella typhimurium. The data set is described as follows: Genotoxicity in Salmonella typhimurium TA98 at 500 ug/plate by Ames test in presence of S9 fraction. It counts as toxicity, organism-based. The conditions noted are these: salmonella enterica subsp. enterica serovar typhimurium.
In data set [3] the test system is Salmonella typhimurium. Kind of data set: Genotoxicity in Salmonella typhimurium TA100 at 1600 ug/plate by Ames test in absence of S9 fraction. The conditions noted are these: salmonella enterica subsp. enterica serovar typhimurium. It counts as toxicity, organism-based.
The test system of data set [4] is Salmonella typhimurium. The data set is described as follows: Genotoxicity in Salmonella typhimurium TA98 at 500 ug/plate by Ames test in absence of S9 fraction. It counts as toxicity, organism-based. The conditions noted are these: salmonella enterica subsp. enterica serovar typhimurium.
Data set [5] has as its system Mycobacterium tuberculosis. Kind of data set: Antimycobacterial activity against Mycobacterium tuberculosis H37Rv ATCC 27294 after 5 days by microdilution method. It counts as functional. The conditions noted are these: H37Rv ATCC 27294, 120 h. In general terms: Dilution methods test growth across graded concentrations, often in twofold steps.
Data set [6] is described as follows: Volume of distribution at steady state in mouse. The class given is ADME, organism-based. The conditions noted are these: in vivo, read-out: Vdss.
The nature of data set [7]: Clearance in iv dosed mouse. The class given is ADME, organism-based. Particulars: in vivo.
In data set [8] the target is Cytochrome P450 3A4 (Homo sapiens, UniProt P08684). Kind of data set: Inhibition of human recombinant CYP3A4 by fluorescence assay. The class given is ADME.
Cytochrome P450 3A4, sequence (P08684 whole entry): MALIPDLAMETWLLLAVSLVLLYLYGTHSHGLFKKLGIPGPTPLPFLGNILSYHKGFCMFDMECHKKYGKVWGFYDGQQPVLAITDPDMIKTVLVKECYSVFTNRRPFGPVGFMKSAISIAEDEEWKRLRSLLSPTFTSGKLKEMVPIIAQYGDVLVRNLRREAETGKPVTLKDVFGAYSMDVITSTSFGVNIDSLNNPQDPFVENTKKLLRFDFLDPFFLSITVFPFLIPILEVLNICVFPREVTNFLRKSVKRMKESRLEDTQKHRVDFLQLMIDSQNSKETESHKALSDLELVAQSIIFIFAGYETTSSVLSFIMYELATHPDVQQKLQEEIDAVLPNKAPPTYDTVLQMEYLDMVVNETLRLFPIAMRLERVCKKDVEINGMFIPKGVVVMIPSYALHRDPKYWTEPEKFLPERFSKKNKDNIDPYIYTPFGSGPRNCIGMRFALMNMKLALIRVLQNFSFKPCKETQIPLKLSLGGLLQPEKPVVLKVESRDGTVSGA
The test system of data set [9] is Salmonella typhimurium. The data set is described as follows: Genotoxicity in Salmonella typhimurium TA100 at 5000 ug/plate by Ames test in presence of S9 fraction. The conditions noted are these: salmonella enterica subsp. enterica serovar typhimurium. It counts as toxicity, organism-based.
Data set [10] has as its system Salmonella typhimurium. The data set is described as follows: Genotoxicity in Salmonella typhimurium TA98 at 5000 ug/plate by Ames test in presence of S9 fraction. It counts as toxicity, organism-based. The conditions noted are these: salmonella enterica subsp. enterica serovar typhimurium.
Data set [11] in a line: Aqueous solubility of the compound. The conditions noted are these: buffer. The class given is physicochemical.
The target of data set [12] is Cytochrome P450 2D6 (Homo sapiens, UniProt P10635). The data set is described as follows: Inhibition of human recombinant CYP2D6 by fluorescence assay. It counts as ADME.
Cytochrome P450 2D6, sequence (P10635 whole entry): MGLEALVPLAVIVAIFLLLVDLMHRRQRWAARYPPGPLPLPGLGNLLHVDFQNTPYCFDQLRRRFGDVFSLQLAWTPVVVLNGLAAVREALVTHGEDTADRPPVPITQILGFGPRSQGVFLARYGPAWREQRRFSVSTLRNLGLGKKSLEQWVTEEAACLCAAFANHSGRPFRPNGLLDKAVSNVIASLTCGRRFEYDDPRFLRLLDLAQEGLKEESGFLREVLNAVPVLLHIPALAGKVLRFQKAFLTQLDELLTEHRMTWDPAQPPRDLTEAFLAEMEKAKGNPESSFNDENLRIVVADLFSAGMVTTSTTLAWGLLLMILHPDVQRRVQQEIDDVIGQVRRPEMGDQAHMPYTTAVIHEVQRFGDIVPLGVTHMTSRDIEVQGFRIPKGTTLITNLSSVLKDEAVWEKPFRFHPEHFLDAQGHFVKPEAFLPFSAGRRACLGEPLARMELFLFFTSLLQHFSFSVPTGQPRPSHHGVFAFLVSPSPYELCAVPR
Data set [13] concerns Salmonella typhimurium. Kind of data set: Genotoxicity in Salmonella typhimurium TA98 at 5000 ug/plate by Ames test in absence of S9 fraction. The class given is toxicity, organism-based. The conditions noted are these: salmonella enterica subsp. enterica serovar typhimurium.
Data set [14] can be described thus: Intrinsic clearance in mouse liver microsomes. The class given is ADME. The conditions noted are these: read-out: CLH.
Data set [15] can be described thus: Oral bioavailability in mouse. The class given is ADME, organism-based. Particulars: in vivo.
The nature of data set [16]: Inhibition of Mycobacterium tuberculosis DprE1 using farnesyl-phosphoryl-beta-D-ribofuranose as substrate preincubated for 30 mins before substrate addition by peroxidase coupled assay.
The test system of data set [17] is A549. Kind of data set: Cytotoxicity against human A549 cells after 72 hrs by fluorescence assay. The conditions noted are these: A549, 72 h. The class given is cell-based.
Data set [18] can be described thus: Intrinsic clearance in human liver microsomes. It counts as ADME. The conditions noted are these: read-out: CLH. (In general: Liver microsomes are a subcellular fraction often used to study metabolism.)
A short description of data set [19]: AUC100 in po dosed mouse. The class given is ADME, organism-based. Particulars: in vivo.
In data set [20] the test system is Salmonella typhimurium. Kind of data set: Genotoxicity in Salmonella typhimurium TA100 at 5000 ug/plate by Ames test in absence of S9 fraction. The class given is toxicity, organism-based. The conditions noted are these: salmonella enterica subsp. enterica serovar typhimurium.
In data set [21] the target is Cytochrome P450 2C9 (Homo sapiens, UniProt P11712). The data set is described as follows: Inhibition of human recombinant CYP2C9 by fluorescence assay. The conditions noted are these: read-out: IC50. The class given is ADME.
Cytochrome P450 2C9, sequence (P11712 whole entry): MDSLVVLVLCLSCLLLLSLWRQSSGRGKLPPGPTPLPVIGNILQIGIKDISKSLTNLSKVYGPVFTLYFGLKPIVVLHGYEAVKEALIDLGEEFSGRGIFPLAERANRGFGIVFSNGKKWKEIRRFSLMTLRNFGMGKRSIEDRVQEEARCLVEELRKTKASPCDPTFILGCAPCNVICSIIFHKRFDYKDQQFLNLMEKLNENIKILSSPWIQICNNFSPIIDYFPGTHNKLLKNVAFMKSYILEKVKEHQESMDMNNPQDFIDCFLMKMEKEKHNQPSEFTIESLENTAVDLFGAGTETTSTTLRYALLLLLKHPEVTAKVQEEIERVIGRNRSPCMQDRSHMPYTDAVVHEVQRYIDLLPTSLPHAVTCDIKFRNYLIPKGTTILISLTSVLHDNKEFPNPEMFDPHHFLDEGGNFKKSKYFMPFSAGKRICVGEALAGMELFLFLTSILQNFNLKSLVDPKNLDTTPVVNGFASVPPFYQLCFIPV
The target of data set [22] is T1, Cytochrome P450 1A2 (Homo sapiens, UniProt P05177).
T1 sequence (P05177 whole entry): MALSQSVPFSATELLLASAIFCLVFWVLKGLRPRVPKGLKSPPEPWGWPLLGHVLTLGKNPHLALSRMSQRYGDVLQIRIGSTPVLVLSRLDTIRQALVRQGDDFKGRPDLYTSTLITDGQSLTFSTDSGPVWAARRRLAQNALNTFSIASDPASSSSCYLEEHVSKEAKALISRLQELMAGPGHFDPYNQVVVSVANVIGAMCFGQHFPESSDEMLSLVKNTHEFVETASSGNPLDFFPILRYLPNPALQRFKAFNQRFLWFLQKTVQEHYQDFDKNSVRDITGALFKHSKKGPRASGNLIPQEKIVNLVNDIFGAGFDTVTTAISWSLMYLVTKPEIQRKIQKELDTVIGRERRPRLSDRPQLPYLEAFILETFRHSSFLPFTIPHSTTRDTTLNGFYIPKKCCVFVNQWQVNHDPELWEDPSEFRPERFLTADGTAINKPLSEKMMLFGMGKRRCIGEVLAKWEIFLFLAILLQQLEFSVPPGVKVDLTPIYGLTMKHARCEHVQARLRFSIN
Kind of data set: Inhibition of human recombinant CYP1A2 by fluorescence assay. It counts as ADME.

Data set [23] deals with Cytochrome P450 2C19 (Homo sapiens, UniProt P33261). Kind of data set: Inhibition of human recombinant CYP2C19 by fluorescence assay. It counts as ADME.
Cytochrome P450 2C19, sequence (P33261 whole entry): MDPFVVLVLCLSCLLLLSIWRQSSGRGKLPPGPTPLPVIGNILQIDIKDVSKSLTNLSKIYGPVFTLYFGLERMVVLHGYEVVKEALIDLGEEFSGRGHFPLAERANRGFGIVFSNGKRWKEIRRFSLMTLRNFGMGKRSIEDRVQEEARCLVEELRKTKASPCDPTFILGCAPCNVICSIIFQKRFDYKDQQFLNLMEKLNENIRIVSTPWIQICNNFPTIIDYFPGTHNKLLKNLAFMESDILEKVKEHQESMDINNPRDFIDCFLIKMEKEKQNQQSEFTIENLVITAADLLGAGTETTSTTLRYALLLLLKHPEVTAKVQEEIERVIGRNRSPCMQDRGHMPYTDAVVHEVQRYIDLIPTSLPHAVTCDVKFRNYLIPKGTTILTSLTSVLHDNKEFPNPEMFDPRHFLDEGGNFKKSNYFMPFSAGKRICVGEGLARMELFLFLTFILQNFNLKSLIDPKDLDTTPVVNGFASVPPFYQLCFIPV
The nature of data set [24]: Fraction unbound in mouse plasma protein. It counts as ADME, cell-free.
In data set [25] the test system is Mycobacterium tuberculosis. Kind of data set: Binding affinity to N-terminal His-tagged Mycobacterium tuberculosis DprE1 assessed as molecular weight shift due to semimercaptal covalent DprE1 adduct formation at 400 uM incubated for 5 hrs in presence of FAD and FPR by deconvoluted mass spectrometry.
Data set [26] concerns Salmonella typhimurium. Kind of data set: Genotoxicity in Salmonella typhimurium TA98 at 1600 ug/plate by Ames test in absence of S9 fraction. It counts as toxicity, organism-based. The conditions noted are these: salmonella enterica subsp. enterica serovar typhimurium.
In data set [27] the test system is Salmonella typhimurium. The data set is described as follows: Genotoxicity in Salmonella typhimurium TA100 at 16 ug/plate by Ames test in presence of S9 fraction. It counts as toxicity, organism-based. The conditions noted are these: salmonella enterica subsp. enterica serovar typhimurium.
Data set [28] concerns Salmonella typhimurium. The data set is described as follows: Genotoxicity in Salmonella typhimurium TA98 at 1600 ug/plate by Ames test in presence of S9 fraction. The class given is toxicity, organism-based. The conditions noted are these: salmonella enterica subsp. enterica serovar typhimurium.
Data set [29] concerns Salmonella typhimurium. Kind of data set: Genotoxicity in Salmonella typhimurium TA100 at 16 ug/plate by Ames test in absence of S9 fraction. The class given is toxicity, organism-based. The conditions noted are these: salmonella enterica subsp. enterica serovar typhimurium.
Data set [30] concerns Salmonella typhimurium. Kind of data set: Genotoxicity in Salmonella typhimurium TA100 at 500 ug/plate by Ames test in absence of S9 fraction. It counts as toxicity, organism-based. Particulars: salmonella enterica subsp. enterica serovar typhimurium.
Data set [31] has as its system Salmonella typhimurium. The data set is described as follows: Genotoxicity in Salmonella typhimurium TA100 at 500 ug/plate by Ames test in presence of S9 fraction. The class given is toxicity, organism-based. Particulars: salmonella enterica subsp. enterica serovar typhimurium.
The subject of data set [32] is Salmonella typhimurium. The data set is described as follows: Genotoxicity in Salmonella typhimurium TA98 at 50 ug/plate by Ames test in presence of S9 fraction. It counts as toxicity, organism-based. Particulars: salmonella enterica subsp. enterica serovar typhimurium.
For data set [33], the system named is Salmonella typhimurium. The data set is described as follows: Genotoxicity in Salmonella typhimurium TA100 at 50 ug/plate by Ames test in absence of S9 fraction. It counts as toxicity, organism-based. The conditions noted are these: salmonella enterica subsp. enterica serovar typhimurium.
The subject of data set [34] is Salmonella typhimurium. The data set is described as follows: Genotoxicity in Salmonella typhimurium TA98 at 50 ug/plate by Ames test in absence of S9 fraction. It counts as toxicity, organism-based. Particulars: salmonella enterica subsp. enterica serovar typhimurium.

Turning to `O=[N+]([O-])c1cc(C(F)(F)F)cc2nc(C3=NCCO3)sc12`, the Activity result in [1], in data set [2], in data set [3] and in data set [4] was “Toxic” throughout. The compound also showed an MIC in [5] of 1 µg/mL (≈ 3.15 µM).
In the case of `Cc1c(C(F)(F)F)cc2nc(C3=N[C@H](C(=O)N4CCCC4)CO3)sc2c1[N+](=O)[O-]`, the Vd in [6] was found to be 3.5 L/kg. Moreover, the clearance in data set [7] was determined as 83.5 mL/min/kg. Besides, the IC50 in data set [8] is above 100 µM; in data set [12], above 100 µM; in [16], 1.2 µM; in data set [17] it was above 100 µM; in data set [21], 22.1 µM; in [22], above 100 µM. Besides, in [23], the IC50 is 73.5 µM. The Activity entry in [9], in data set [10], in [13] and in data set [20] was “Non-toxic” each time. In addition, the solubility in data set [11] turned out to be 12 µM (≈ 5.14 µg/mL). The microsomal CLint came to 37.9 µL/min/mg in [14] and 9.6 µL/min/mg in [18]. Further, the bioavailability in [15] came to 22.5%. Moreover, in data set [19], the AUC was 10200 ng·h/mL. The compound also showed an MIC in data set [5] of 2 µg/mL (≈ 4.67 µM). The compound further displayed a fraction unbound in data set [24] of 0.063.
`O=C(NCc1cccnc1)c1sc2c([N+](=O)[O-])cc(C(F)(F)F)cc2[n+]1[O-]`: the outcome in data set [25] was Active. This compound gave an MIC in data set [5] of 0.03 µg/mL (≈ 0.0753 µM).
Regarding `O=C([C@@H]1COC(c2nc3cc(C(F)(F)F)cc([N+](=O)[O-])c3s2)=N1)N1CCCC1`, the Vd in data set [6] is 1.44 L/kg. This compound showed a clearance in data set [7] of 49 mL/min/kg. The IC50 in data set [8] is 18.6 µM; in data set [12] it was 3.4 µM; in data set [16], 0.654 µM; in data set [17], 82 µM; in [21], 12.4 µM; in data set [22], 53.1 µM. Moreover, the IC50 in [23] was found to be 24.2 µM. The Activity entry in data set [26], in data set [27], in data set [28] and in data set [29] was “Toxic” throughout. Besides, the concentration in solution in data set [11] (solubility) came to 64.6 µM (≈ 26.8 µg/mL). In addition, the microsomal CLint in data set [14] is 76.6 µL/min/mg; in [18] it was 5.3 µL/min/mg. Moreover, the bioavailability in data set [15] worked out at 27%. Also, the AUC in [19] came to 9180 ng·h/mL. This compound also came in with an MIC in [5] of 1.4 µg/mL (≈ 3.38 µM). Moreover, in data set [24], the fraction unbound is 0.06.
On to `COCc1nc2cc(C(F)(F)F)cc([N+](=O)[O-])c2s1`, for which the IC50 in data set [16] worked out at 5.9 µM. The Activity entry in data set [30] and in data set [31] was “Non-toxic” in each case. Moreover, the MIC in data set [5] is above 32 µg/mL.
Consider `COCCN1CCN(C(=O)c2sc3c([N+](=O)[O-])cc(C(F)(F)F)cc3[n+]2[O-])CC1`, for which the Activity entry in [32], in data set [27], in data set [33] and in data set [34] was “Toxic” in each case. In [16], this compound had an IC50 of 0.027 µM. This compound also yielded an MIC in [5] of 0.03 µg/mL (≈ 0.0691 µM).
